Patent US7326727B2, “Furanthiazole derivatives as heparanase inhibitors” (Oxford Glycosciences (UK) Ltd., priority 2002, dated 2008)

What was measured:
human endothelial cells = assay: Angiogenesis assay (AngioKit, tubule formation by PECAM-1 staining); format: cell-based; conditions: Endothelial cell, 264 h, AngioKit co-culture, tubule formation on day 11, PECAM-1 staining relative to untreated control
Text: Angiogenesis Assay: A commercial angiogenesis assay for analysing the angiogenic or anti-angiogenic properties of test compounds (AngioKit catalogue no. ZHA-1000, TCS CellWorks Ltd, Buckingham, U.K) was used. In this assay, human endothelial cells were co-cultured with other human cells in a specifically designed medium. The endothelial cells initially form small islands within the culture matrix. They subsequently proliferate and then enter a migratory phase during which they move through the matrix to form threadlike tubule structures. These gradually join up (by 12-14 days) to form networks of […] tubules which closely resemble a capillary bed structure. These tubules stain positive for von Willebrand's Factor, Platelet Endothelial Cell Adhesion Molecule-1 (PECAM-1 or CD31) and Intercellular Adhesion Molecule-2 (ICAM-2).
The assay is supplied as growing cultures at the earliest stage of tubule formation in a 24 well plate format. It is designed so that test compounds and conditioned media can be added to the cultures within individual wells. The resulting effect on tubule formation can then be monitored. Positive and negative test agents are provided in the kit, e.g. Vascular Endothelial Growth Factor (VEGF) and sumarin. All reagents were included as part of the kit and the assay was performed according to the protocol supplied by TCS CellWorks Ltd. Briefly, on day 1, fresh growth medium, medium plus control agent or medium plus test compound was added to the cells and the cultures were incubated at 37° C., 5% CO2. […] The specified medium was changed at days 4, 7 and 9 and the cells were monitored for growth. On day 11, the cells were washed with Dulbecco's Phosphate-Buffered Saline (PBS) and fixed using 70% ethanol (−20° C.) for 30 min at room temperature. After fixing, the cells were washed and treated with blocking buffer, 1% BSA in PBS. The cells were stained for PECAM-1 on the same day, following standard immunohistochemistry procedures well known to those skilled in the art, using mouse anti-human CD31 as the primary antibody and a goat anti-mouse IgG alkaline […] conjugate. Tubule formation was quantitatively assessed by measuring PECAM-1 positive staining using the image analysis program “Matrox inspector” to evaluate the percentage tubule staining relative to an untreated control.

human heparanase = target: T1, human heparanase (Homo sapiens, UniProt Q9Y251); assay: Heparanase assay (bFGF binding to heparan sulphate, 96-well plate); format: biochemical; conditions: 2 h at 37° C., pH 5.5, read-out: Inhibition of Heparanase (IC50)
T1 sequence (Q9Y251 158-543 limits assumed): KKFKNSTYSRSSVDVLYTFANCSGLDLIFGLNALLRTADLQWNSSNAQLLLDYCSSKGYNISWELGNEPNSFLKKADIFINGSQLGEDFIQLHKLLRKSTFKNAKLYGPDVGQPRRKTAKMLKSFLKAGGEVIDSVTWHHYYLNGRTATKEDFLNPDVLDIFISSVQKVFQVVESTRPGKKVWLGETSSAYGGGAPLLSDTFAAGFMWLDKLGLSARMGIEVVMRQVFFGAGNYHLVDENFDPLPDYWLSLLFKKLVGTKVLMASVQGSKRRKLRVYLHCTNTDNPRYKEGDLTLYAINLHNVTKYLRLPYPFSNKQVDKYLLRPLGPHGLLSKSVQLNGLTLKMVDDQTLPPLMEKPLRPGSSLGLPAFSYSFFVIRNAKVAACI
T1 sequence (Q9Y251 36-109 limits assumed): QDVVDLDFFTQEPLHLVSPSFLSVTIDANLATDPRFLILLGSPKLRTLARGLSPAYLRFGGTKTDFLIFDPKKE
Procedure: Heparanase assay: The assay is based upon the use of the specific binding of basic fibroblast growth factor (bFGF) to heparan sulphate. Heparan sulphate can be detected via binding of bFGF using a horse radish peroxidase-conjugated bFGF antibody.
Nunc Maxisorp 96-well plates are coated for 16 h at RT with 100 μl/well 0.04 mg/ml heparan sulphate in PBS. The wells are then aspirated and blocked for 1 h with 200 μl/well 1% BSA-PBS. Following five washes with 0.01% BSA, 0.05% Tween20 PBS (wash buffer), 100 μl of recombinant human basic FGF (90 ng/ml in 0.1% BSA/PBS) is added per well and the plate is incubated at room temperature for 1 h.
After a further five washes with the wash buffer, 10 μl of test compound (in 10% DMSO) and 90 μl of human heparanase in 100 mM Sodium acetate, 5 mM CaCl2, pH 5.5 are added to each well and the plate incubated for 2 h at 37° C. The wells are washed again with wash buffer and 100 μl of bFGF antibody-horse radish peroxidase conjugate added. The plate is incubated at room temperature for 1 h and washed again five times with wash buffer. 100 μl of TMB peroxidase substrate is added and the colour allowed to develop for 10 min. The reaction is stopped with 50 μl 1M H2SO4 and the colour read at 450 nm on a plate reader.

IC50 (human heparanase) [µM] | Compound | IC50 (human endothelial cells) [µM]
 | O=C(O)Cc1nc(-c2ccc(-c3ccc(NC(=O)/C=C/c4ccc(Br)cc4)cc3Cl)o2)cs1 [Example 5, 2-[4-[5-[2-Chloro-4-[3-(4-bromo)phenylacryloylamino]phenyl]furan-2-yl]-1,3-thiazol-2-yl]acetic acid] | 1
 | O=C(O)Cc1nc(-c2ccc(-c3ccc(NC(=O)C=Cc4ccccc4)cc3Cl)o2)cs1 [Example 8, 2-[4-[5-[2-Chloro-4-(3-phenylacryloylamino)phenyl]furan-2-yl]-1,3-thiazol-2-yl]acetic acid] | 15
 | O=C(O)Cc1nc(-c2ccc(-c3ccc(NC(=O)c4ccc(OC(F)(F)F)cc4)cc3Cl)o2)cs1 [Example 22, 2-[4-[5-[2-Chloro-4-[(4-trifluoromethoxyphenylcarbonyl)amino]phenyl]furan-2-yl]-1,3-thiazol-2-yl]acetic acid] | 0.5
 | O=C(O)Cc1nc(-c2ccc(-c3ccc(NC(=O)c4ccc(Cl)c(Cl)c4)cc3Cl)o2)cs1 [Example 18, 2-[4-[5-[2-Chloro-4-[(3,4-dichlorophenylcarbonyl)amino]phenyl]furan-2-yl]-1,3-thiazol-2-yl]acetic acid] | 10
 | O=C(O)Cc1nc(-c2ccc(-c3ccc(NC(=O)c4ccc(OC(F)(F)F)cc4)cc3)o2)cs1 [Example 4] | 0.2
0.4 | O=C(O)Cc1nc(-c2ccc(-c3ccc(NC(=O)c4cc5ccccc5s4)cc3Cl)o2)cs1 [Example 11, 2-[4-[5-[2-Chloro-4-[(benzothiophene-2-carbonyl)amino]phenyl]furan-2-yl]-1,3-thiazol-2-yl]acetic acid] | 20
 | O=C(O)Cc1nc(-c2ccc(-c3ccc(NC(=O)/C=C/c4ccc(Cl)cc4Cl)cc3Cl)o2)cs1 [Example 6, 2-[4-[5-[2-Chloro-4-[3-(2,4-dichloro)phenylacryloylamino]phenyl]furan-2-yl]1,3-thiazol-2-yl]acetic acid] | 0.5
7 | COc1cccc(C(=O)Nc2ccc(-c3ccc(-c4csc(CC(=O)O)n4)o3)c(Cl)c2)c1 [Example 21, 2-[4-[5-[2-Chloro-4-[(3-methoxyphenylcarbonyl)amino]phenyl]furan-2-yl]-1,3-thiazol-2-yl]acetic acid] | 

Compound | IC50 (human heparanase) [µM] | IC50 (human endothelial cells) [µM]
2-[4-[5-[2-Chloro-4-[3-(3,5-bistrifluoromethyl)phenylacryloylamino]phenyl]furan-2-yl]-1,3-thiazol-2-yl]acetic acid [Example 7] | 0.4 | 
